Assay results as given in ChEMBL document CHEMBL1201862, “PubChem BioAssay data set” (2004).
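Protocol summary: plate cells (96-well), add compound at 5 concentrations, incubate 48 h, interpolate endpoints linearly. At the GI50, growth is halved.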 Calls of active or inactive are those of the source. Cut-off read from the data, not from the text of the source: active = GI50 up to about 1.1 µM and inactive = higher.

Key:
Experiment in all cases: NCI anticancer screen, dose series, 48 h
[1] = tested on: DU-145
[2] = tested on: 786-0
[3] = tested on: MCF7
[4] = tested on: SK-MEL-5
[5] = tested on: NCI-H23
[6] = tested on: RXF 393
[7] = tested on: HOP-62
[8] = tested on: SNB-19
[9] = tested on: ACHN
[10] = tested on: SK-MEL-2
[11] = tested on: CCRF-CEM
[12] = tested on: MDA-N
[13] = tested on: HCT-15
[14] = tested on: PC-3
[15] = tested on: SN12C
[16] = tested on: OVCAR-3
[17] = tested on: SK-MEL-28
[18] = tested on: HL-60
[19] = tested on: SW-620

SMILES | GI50 [1] | GI50 [2] | GI50 [3] | GI50 [4] | GI50 [5] | GI50 [6] | GI50 [7] | GI50 [8] | GI50 [9] | GI50 [10] | GI50 [11] | GI50 [12] | GI50 [13] [µM] | GI50 [14] | GI50 [15] | GI50 [16] | GI50 [17] | GI50 [18] | GI50 [19]
Cc1ccc(NCCN(C)C)c2c(=O)c3cc(O)ccc3oc12 | 15.1 µM (inactive) | 5.24 µM (inactive) | 5.38 µM (inactive) | 11.6 µM (inactive) | 12.6 µM (inactive) | 11.9 µM (inactive) | 11 µM (inactive) | 11.3 µM (inactive) | 4.62 µM (inactive) | 20.6 µM (inactive) | 2.28 µM (inactive) | 10.7 µM (inactive) | 9.08 | 11.8 µM (inactive) | 7.59 µM (inactive) | 16.5 µM (inactive) | 14.8 µM (inactive) | 2.29 µM (inactive) | 4.12 µM (inactive)
O=C1C(Cl)=C(NCCF)C(=O)c2ncccc21 | 1.6 µM (inactive) | 1.82 µM (inactive) | 1.72 µM (inactive) | 1 µM (active) | 1.6 µM (inactive) | 1.84 µM (inactive) | 2.04 µM (inactive) | 1.64 µM (inactive) | 2.19 µM (inactive) | 1.68 µM (inactive) | 0.235 µM (active) | 0.2 µM (active) | 2.08 | 1.58 µM (inactive) | 1.91 µM (inactive) | 2.03 µM (inactive) | 1.87 µM (inactive) | 5.11 µM (inactive) | 1.36 µM (inactive)
CC1C/C(=C\c2ccc(OC(=O)C(C)(C)C)cc2)C(=O)/C(=C/c2ccc(OC(=O)C(C)(C)C)cc2)C1 (stereo not given) | > 100 µM (inactive) | 54.3 µM (inactive) | 45.5 µM (inactive) | 57.3 µM (inactive) | 24 µM (inactive) | 19.8 µM (inactive) | 41.2 µM (inactive) | > 100 µM (inactive) | 69.3 µM (inactive) | 61 µM (inactive) | 2.34 µM (inactive) | 30.5 µM (inactive) | > 100 | 72.4 µM (inactive) | 26.2 µM (inactive) | 68.4 µM (inactive) | > 100 µM (inactive) | 23.5 µM (inactive) | > 100 µM (inactive)
Cc1ccc(S(=O)(=O)NC(=O)Nc2nc[nH]n2)cc1 | > 100 µM (inactive) | > 100 µM (inactive) | > 100 µM (inactive) | > 100 µM (inactive) | > 100 µM (inactive) | > 100 µM (inactive) | > 100 µM (inactive) | > 100 µM (inactive) | > 100 µM (inactive) | > 100 µM (inactive) | > 100 µM (inactive) | > 100 µM (inactive) | > 100 | > 100 µM (inactive) | > 100 µM (inactive) | > 100 µM (inactive) | > 100 µM (inactive) | > 100 µM (inactive) | > 100 µM (inactive)
O=C(N(O)c1ccccc1Cl)C(O)(c1ccccc1)c1ccccc1 | 59.8 µM (inactive) | 31.3 µM (inactive) | 56.8 µM (inactive) | 50.6 µM (inactive) | > 100 µM (inactive) | 51.2 µM (inactive) | > 100 µM (inactive) | > 100 µM (inactive) | 52.8 µM (inactive) | > 100 µM (inactive) | 15.4 µM (inactive) | 67.1 µM (inactive) | 39.3 | 91.6 µM (inactive) | > 100 µM (inactive) | 43.5 µM (inactive) | 93.3 µM (inactive) | 22.6 µM (inactive) | 42.7 µM (inactive)
CN(C)c1ccc(/C=C(\NC(=O)c2ccccc2)C(=O)NCC(=O)O)cc1 | > 100 µM (inactive) | > 100 µM (inactive) | > 100 µM (inactive) | > 100 µM (inactive) | > 100 µM (inactive) | > 100 µM (inactive) | > 100 µM (inactive) | > 100 µM (inactive) | > 100 µM (inactive) | > 100 µM (inactive) | > 100 µM (inactive) | > 100 µM (inactive) | > 100 | > 100 µM (inactive) | > 100 µM (inactive) | > 100 µM (inactive) | > 100 µM (inactive) | 0.0755 µM (active) | > 100 µM (inactive)
Cc1ccc2cccc(-c3cccc4ccccc34)c2n1 | 36.8 µM (inactive) | 27.4 µM (inactive) | > 10 µM (inactive) | 16.1 µM (inactive) | 32.9 µM (inactive) | 13.6 µM (inactive) | 25.2 µM (inactive) | 46.9 µM (inactive) | 24.4 µM (inactive) | 15 µM (inactive) | 19.8 µM (inactive) | 4.2 µM (inactive) | 21.7 | 29.2 µM (inactive) | 25.6 µM (inactive) | 25.2 µM (inactive) | 26.6 µM (inactive) | 3.33 µM (inactive) | 25.2 µM (inactive)
[N-]=[N+]=NC1C(O)C(CO)OC1n1cnc2c(N)ncnc21 (stereo not given) | 3.04 µM (inactive) | 30.8 µM (inactive) | 5.21 µM (inactive) | > 100 µM (inactive) | 30.5 µM (inactive) | 66.2 µM (inactive) | 84.9 µM (inactive) | 59.4 µM (inactive) | 5.28 µM (inactive) | > 100 µM (inactive) | 10.1 µM (inactive) | 71.3 µM (inactive) | > 100 | 74.3 µM (inactive) | 25.9 µM (inactive) | > 100 µM (inactive) | > 100 µM (inactive) | 0.522 µM (active) | 60.5 µM (inactive)
C[C@@H]1[C@H](C)N1CC(O)Cn1ccnc1[N+](=O)[O-] (stereo not given in full) | > 100 µM (inactive) | > 100 µM (inactive) | > 100 µM (inactive) | > 100 µM (inactive) | > 100 µM (inactive) | > 100 µM (inactive) | > 100 µM (inactive) | > 100 µM (inactive) | > 100 µM (inactive) | > 100 µM (inactive) | > 100 µM (inactive) | > 100 µM (inactive) | > 100 | > 100 µM (inactive) | > 100 µM (inactive) | > 100 µM (inactive) | > 100 µM (inactive) | > 100 µM (inactive) | > 100 µM (inactive)
CC1=NN2C(=N)/C(=C/c3ccccc3)C(=O)N=C2S1 | > 100 µM (inactive) | > 100 µM (inactive) | 0.867 µM (active) | > 100 µM (inactive) | > 100 µM (inactive) | > 100 µM (inactive) | > 100 µM (inactive) | > 100 µM (inactive) | > 100 µM (inactive) | > 100 µM (inactive) | > 100 µM (inactive) | > 100 µM (inactive) | > 100 | > 100 µM (inactive) | > 100 µM (inactive) | > 100 µM (inactive) | > 100 µM (inactive) | > 100 µM (inactive) | > 100 µM (inactive)
COc1ccccc1NC(=O)CC(=O)N1N=C(C)C(/N=N/c2ccc(C(=O)O)cc2)C1=O (stereo not given) | > 100 µM (inactive) | > 100 µM (inactive) | > 100 µM (inactive) | > 100 µM (inactive) | > 100 µM (inactive) | > 100 µM (inactive) | > 100 µM (inactive) | > 100 µM (inactive) | > 100 µM (inactive) | > 100 µM (inactive) | > 100 µM (inactive) | > 100 µM (inactive) | > 100 | > 100 µM (inactive) | > 100 µM (inactive) | > 100 µM (inactive) | > 100 µM (inactive) | > 100 µM (inactive) | > 100 µM (inactive)
CC(NC(=O)OC(C)(C)C)C(=O)NC(Cc1ccccc1)C(=O)NCC(=O)ON=C1CCCC1 (stereo not given) | > 100 µM (inactive) | > 100 µM (inactive) | 63.1 µM (inactive) | > 100 µM (inactive) | > 100 µM (inactive) | > 100 µM (inactive) | > 100 µM (inactive) | > 100 µM (inactive) | > 100 µM (inactive) | > 100 µM (inactive) | 90.2 µM (inactive) | 35.6 µM (inactive) | > 100 | > 100 µM (inactive) | > 100 µM (inactive) | > 100 µM (inactive) | > 100 µM (inactive) | > 100 µM (inactive) | > 100 µM (inactive)
COc1c2c(cc3c1-c1c(cc4c(c1OC)OCO4)C1OC3C(C)C1C)OCO2.COc1cc2c(c(OC)c1OC)-c1c(cc3c(c1OC)OCO3)C1OC2C(C)C1C (stereo not given) | 91.8 µM (inactive) | > 100 µM (inactive) | > 100 µM (inactive) | 78 µM (inactive) | > 100 µM (inactive) | > 100 µM (inactive) | > 100 µM (inactive) | > 100 µM (inactive) | > 100 µM (inactive) | > 100 µM (inactive) | 40.4 µM (inactive) | > 100 µM (inactive) | 67.9 | 37.8 µM (inactive) | > 100 µM (inactive) | 84.5 µM (inactive) | > 100 µM (inactive) | 28.9 µM (inactive) | > 100 µM (inactive)
Cc1ccc2nc(-c3ccc(-n4c(C)nc(=O)c(-c5ccc(F)cc5)c4C)cc3)sc2c1 | 15.9 µM (inactive) | 13.6 µM (inactive) | 13.3 µM (inactive) | 10.8 µM (inactive) | 16.3 µM (inactive) | 9.75 µM (inactive) | 22 µM (inactive) | 14.8 µM (inactive) | 14.6 µM (inactive) | 19.1 µM (inactive) | 13 µM (inactive) | 14.4 µM (inactive) | 12.4 | 12.4 µM (inactive) | 15 µM (inactive) | 13.9 µM (inactive) | 20.8 µM (inactive) | 11.4 µM (inactive) | 21.6 µM (inactive)
OC(C/C(=N\N1CCCCC1)c1cccs1)(C(F)(F)F)C(F)(F)F | > 10 µM (inactive) | > 10 µM (inactive) | > 10 µM (inactive) | > 10 µM (inactive) | > 10 µM (inactive) | > 10 µM (inactive) | > 10 µM (inactive) | > 10 µM (inactive) | > 10 µM (inactive) | > 10 µM (inactive) | > 10 µM (inactive) | > 10 µM (inactive) | > 10 | > 10 µM (inactive) | > 10 µM (inactive) | > 10 µM (inactive) | > 10 µM (inactive) | > 10 µM (inactive) | > 10 µM (inactive)
